According to US8562949B2, “Radiolabeled dihydrotetrabenazine derivatives and their use as imaging agents” (The Trustees of the University of Pennsylvania, priority 2006, dated 2013):
Values belong to the compound of their own block, whether it stands above or below them.

How the values were obtained:
[1] = Partition coefficient 1-octanol/phosphate buffer; assay type: physicochemical; conditions: pH 7.4, 1-octanol and phosphate buffer
Description: Partition coefficients were measured by mixing the [^18F]tracer with 3 g each of 1-octanol and buffer (0.1 M phosphate, pH 7.4) in a test tube. The test tube was vortexed for 3 min at room temperature, followed by centrifugation for 5 min. Two weighed samples (0.5 g each) from the 1-octanol and buffer layers were counted in a well counter. The partition coefficient was determined by calculating the ratio of cpm/g of 1-octanol to that of buffer. Samples from the 1-octanol layer were re-partitioned until consistent partitions of coefficient values were obtained. Values are the mean±SEM of three independent experiments, each in duplicates.

[2] = Biodistribution in normal rats; assay type: in vivo; conditions: IV
Description: While under isoflurane anesthesia, 0.15 mL of a 0.1% bovine serum albumin solution containing [^18F]tracers (10-20 μCi) were injected directly into the tail vein of ICR mice (22-25 g, male) The mice (n=3 for each time point) were sacrificed by cervical dislocation at indicated time points post injection. The organs of interest were removed and weighed, and the radioactivity was counted with an automatic gamma counter. The percentage dose per organ was calculated by a comparison of the tissue counts to suitably diluted aliquots of the injected material. Total activities of blood were calculated under the assumption that they were 7% of the total body weight. The % dose/g of samples was calculated by comparing the sample counts with the count of the diluted initial dose.
The ability of (+)-6b to target the pancreas was shown in normal rats. Using the methods described above under Example 6, the biodistribution of (+)-6b after IV injection in twelve normal rats was measured. For the organs studied, the pancreas had the highest % dose/gram within 30 minutes after injection. Also shown are data indicating distribution in the striatum, which is another area rich in VMAT-2 receptors.

Compound: COc1cc2c(cc1OCCC[18F])CCN1CC(CC(C)C)C(O)CC21 (racemic) [[^18F]6b]
logD at 3 min [1]: 2.61

Biodistribution Blood ([2]; 2 min): 0.26 ± 0.03 % dose/g | Biodistribution Brain ([2]; 2 min): 0.71 ± 0.05 % dose/g | Biodistribution Cerebellum ([2]; 2 min): 0.63 ± 0.03 % dose/g | Biodistribution Cortex ([2]; 2 min): 0.65 ± 0.02 % dose/g | Biodistribution Heart ([2]; 2 min): 0.71 ± 0.07 % dose/g | Biodistribution Hippocampus ([2]; 2 min): 0.68 ± 0.07 % dose/g | Biodistribution Kidney ([2]; 2 min): 2.10 ± 0.17 % dose/g | Biodistribution Liver ([2]; 2 min): 3.53 ± 0.56 % dose/g | Biodistribution Lung ([2]; 2 min): 0.94 ± 0.04 % dose/g | Biodistribution Muscle ([2]; 2 min): 0.14 ± 0.03 % dose/g | Biodistribution Pancreas ([2]; 2 min): 2.51 ± 0.22 % dose/g | Biodistribution Skin ([2]; 2 min): 0.23 ± 0.05 % dose/g | Biodistribution Spleen ([2]; 2 min): 1.46 ± 0.15 % dose/g | Biodistribution Striatum ([2]; 2 min): 1.52 ± 0.20 % dose/g | Biodistribution Blood ([2]; 30 min): 0.23 ± 0.06 % dose/g | Biodistribution Brain ([2]; 30 min): 0.62 ± 0.08 % dose/g | Biodistribution Cerebellum ([2]; 30 min): 0.40 ± 0.04 % dose/g | Biodistribution Cortex ([2]; 30 min): 0.44 ± 0.06 % dose/g | Biodistribution Heart ([2]; 30 min): 0.41 ± 0.03 % dose/g | Biodistribution Hippocampus ([2]; 30 min): 0.61 ± 0.12 % dose/g | Biodistribution Kidney ([2]; 30 min): 1.06 ± 0.06 % dose/g | Biodistribution Liver ([2]; 30 min): 2.82 ± 0.24 % dose/g | Biodistribution Lung ([2]; 30 min): 0.69 ± 0.03 % dose/g | Biodistribution Muscle ([2]; 30 min): 0.17 ± 0.02 % dose/g | Biodistribution Pancreas ([2]; 30 min): 5.50 ± 0.97 % dose/g | Biodistribution Skin ([2]; 30 min): 0.28 ± 0.01 % dose/g | Biodistribution Spleen ([2]; 30 min): 1.03 ± 0.18 % dose/g | Biodistribution Striatum ([2]; 30 min): 2.25 ± 0.48 % dose/g | Biodistribution Blood ([2]; 60 min): 0.18 ± 0.02 % dose/g | Biodistribution Brain ([2]; 60 min): 0.42 ± 0.04 % dose/g | Biodistribution Cerebellum ([2]; 60 min): 0.28 ± 0.04 % dose/g | Biodistribution Cortex ([2]; 60 min): 0.27 ± 0.07 % dose/g | Biodistribution Heart ([2]; 60 min): 0.30 ± 0.10 % dose/g | Biodistribution Hippocampus ([2]; 60 min): 0.36 ± 0.08 % dose/g | Biodistribution Kidney ([2]; 60 min): 0.84 ± 0.09 % dose/g | Biodistribution Liver ([2]; 60 min): 2.47 ± 0.30 % dose/g | Biodistribution Lung ([2]; 60 min): 0.54 ± 0.14 % dose/g | Biodistribution Muscle ([2]; 60 min): 0.13 ± 0.01 % dose/g | Biodistribution Pancreas ([2]; 60 min): 4.98 ± 0.24 % dose/g | Biodistribution Skin ([2]; 60 min): 0.23 ± 0.04 % dose/g | Biodistribution Spleen ([2]; 60 min): 0.83 ± 0.18 % dose/g | Biodistribution Striatum ([2]; 60 min): 1.85 ± 0.26 % dose/g | Biodistribution Blood ([2]; 120 min): 0.12 ± 0.03 % dose/g | Biodistribution Brain ([2]; 120 min): 0.35 ± 0.02 % dose/g | Biodistribution Cerebellum ([2]; 120 min): 0.20 ± 0.01 % dose/g | Biodistribution Cortex ([2]; 120 min): 0.20 ± 0.06 % dose/g | Biodistribution Heart ([2]; 120 min): 0.22 ± 0.01 % dose/g | Biodistribution Hippocampus ([2]; 120 min): 0.23 ± 0.03 % dose/g | Biodistribution Kidney ([2]; 120 min): 0.55 ± 0.06 % dose/g | Biodistribution Liver ([2]; 120 min): 1.47 ± 0.13 % dose/g | Biodistribution Lung ([2]; 120 min): 0.35 ± 0.03 % dose/g | Biodistribution Muscle ([2]; 120 min): 0.10 ± 0.01 % dose/g | Biodistribution Pancreas ([2]; 120 min): 2.76 ± 0.61 % dose/g | Biodistribution Skin ([2]; 120 min): 0.16 ± 0.02 % dose/g | Biodistribution Spleen ([2]; 120 min): 0.48 ± 0.04 % dose/g | Biodistribution Striatum ([2]; 120 min): 1.42 ± 0.54 % dose/g
Compound: COc1cc2c(cc1OCCC[18F])CCN1C[C@@H](CC(C)C)[C@H](O)C[C@H]21 [[^18F]-(+)-6b]
